The results in this text go back to ChEMBL document CHEMBL1201862, “PubChem BioAssay data set” (2004).

Molecules are shown by their SMILES.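 Results reflect a 48-hour exposure of cells in 96-well plates to compound at five concentrations. Here, GI50 denotes the concentration required for 50% inhibition of growth.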 The source made the active and inactive calls. No stated cut-off is given here; in the data, active = GI50 up to about 1.1 µM and inactive = higher.

Some test systems named below: HL-60; SW-620; UACC-257; HCT-15; CCRF-CEM; OVCAR-3; HOP-18; OVCAR-8; NCI-H522; SN12C; T47D; 786-0; TK-10; NCI-H460; SK-MEL-2; HCC 2998; SNB-19; MDA-N; SK-OV-3; UACC-62.
Common to all, as to test: inhibition of tumour cell growth, NCI panel, 48 h

As for `O=C1NC2C(=CC(O)C(O)C2O)c2cc3c(cc21)OCO3` (centres undefined), the GI50 in the test with HL-60 is 0.108 µM (active); with SW-620, 0.335 µM (active); with UACC-257 it was 0.695 µM (active); in the test on HCT-15, 0.52 µM; with CCRF-CEM, 0.206 µM (active); in the test on OVCAR-3, 0.372 µM (active). Also, the GI50 is 1.48 µM (inactive) in the test on HOP-18; 0.233 µM (active) in the test on OVCAR-8; 0.244 µM (active) with NCI-H522; 0.301 µM (active) in the test on SN12C; 0.0964 µM (active) with T47D; 0.245 µM (active) in the test on 786-0. For the same compound, the GI50 in the test with TK-10 was 0.418 µM (active); in the test with NCI-H460 it was 0.194 µM (active); in the test on SK-MEL-2 it was 0.351 µM (active); in the test with HCC 2998, 0.415 µM (active); in the test on SNB-19, 0.244 µM (active); in the test on MDA-N, 0.0832 µM (active). For the same compound, the GI50 is 0.619 µM (active) with SK-OV-3 and 0.421 µM (active) in the test with UACC-62.

`Cc1ccc2c(C)c3ccc4ccccc4c3c[n+]2c1.[O-][Cl+3]([O-])([O-])[O-]`: the GI50 in the test with HL-60 was 31.6 µM (inactive); with SW-620, 10.1 µM (inactive); in the test on UACC-257 it was 12.4 µM (inactive); with HCT-15 it was 52.1 µM; in the test on CCRF-CEM it was 11.1 µM (inactive); in the test on OVCAR-3 it was 7.35 µM (inactive). The GI50 with HOP-18 is 12.4 µM (inactive); with OVCAR-8, 10 µM (inactive); with NCI-H522, 11.2 µM (inactive); in the test on SN12C it was 4.68 µM (inactive); with 786-0 it was 9.18 µM (inactive); in the test with TK-10, 53.5 µM (inactive). In addition, the GI50 with NCI-H460 was 14.3 µM (inactive); with SK-MEL-2, 13.9 µM (inactive); in the test with HCC 2998 it was 12.9 µM (inactive); in the test on SNB-19 it was 6.46 µM (inactive); in the test on SK-OV-3, 17.7 µM (inactive); with UACC-62 it was 13.7 µM (inactive).

In the case of `CCN(N=O)C1C2(CCCC2)NC(=O)C12CCCC2` (centres undefined), the GI50 in the test with HL-60 was > 100 µM (inactive); in the test on SW-620, > 100 µM (inactive); with UACC-257, > 100 µM (inactive); with HCT-15, greater than 100 µM; in the test on CCRF-CEM, > 100 µM (inactive); with OVCAR-3, > 100 µM (inactive). Further, the GI50 in the test on HOP-18, with OVCAR-8, with SN12C, in the test with 786-0, with TK-10 and with NCI-H460 was > 100 µM (inactive) each time. Further, the GI50 in the test with HCC 2998, in the test with SNB-19, in the test with SK-OV-3 and in the test on UACC-62 was > 100 µM (inactive) throughout.

`CC(C)C1CCC/C=C/C=C/C=C/C=C/C(OC2OC(C)C(O)C(N)C2O)CC2OC(O)(CC(O)CC(O)C(O)CCC(=O)O1)CC(O)C2C(=O)O` (centres undefined): the GI50 in the test with HL-60 is > 52.5 µM (inactive); in the test on SW-620, > 52.5 µM (inactive); with HCT-15 it was greater than 52.5 µM; in the test on CCRF-CEM, > 52.5 µM (inactive); in the test on OVCAR-3, > 52.5 µM (inactive); in the test on HOP-18 it was > 52.5 µM (inactive). Besides, the GI50 in the test on OVCAR-8, with NCI-H522, in the test on SN12C, in the test with 786-0, in the test on SNB-19 and with SK-OV-3 was > 52.5 µM (inactive) throughout. Further, the GI50 in the test on UACC-62 was > 52.5 µM (inactive).

On to `CCc1c(Cc2[nH]c(Cc3[nH]c(C=O)c(C)c3CC)c(CC)c2CC)[nH]c(C=O)c1C`, for which the GI50 in the test with HL-60 was > 100 µM (inactive); with SW-620, > 100 µM (inactive); in the test with HCT-15, greater than 100 µM; with CCRF-CEM, 66.7 µM (inactive); with OVCAR-3, > 100 µM (inactive); in the test with HOP-18, > 100 µM (inactive). Moreover, the GI50 with OVCAR-8, in the test on NCI-H522, in the test with SN12C, in the test on 786-0, in the test on TK-10 and in the test with NCI-H460 was > 100 µM (inactive) throughout. For the same compound, the GI50 in the test on SK-MEL-2 is > 10 µM (inactive); with HCC 2998 it was > 100 µM (inactive); in the test with SNB-19 it was > 100 µM (inactive); in the test on SK-OV-3, > 100 µM (inactive); in the test on UACC-62, > 100 µM (inactive).

For `O=C(O)c1ccccc1/N=N/c1ccc2oc(=O)c(C(=O)Nc3ccccc3)cc2c1`, the GI50 in the test with HL-60 is 24.4 µM (inactive); in the test with SW-620, 49.7 µM (inactive); with UACC-257, 24.6 µM (inactive); in the test with HCT-15, 32.7 µM; in the test on CCRF-CEM, 28.6 µM (inactive); in the test on OVCAR-3 it was 20.4 µM (inactive). For the same compound, the GI50 with HOP-18 is 30.1 µM (inactive); with OVCAR-8, 38.1 µM (inactive); in the test on NCI-H522 it was 34.8 µM (inactive); with SN12C, 45.1 µM (inactive); in the test with 786-0, 70.8 µM (inactive); with TK-10, 61.5 µM (inactive). In addition, the GI50 in the test on NCI-H460 is 36.6 µM (inactive); in the test on SNB-19 it was 32.3 µM (inactive); in the test on SK-OV-3, 52.8 µM (inactive); in the test on UACC-62, 22.9 µM (inactive).

On to `CCCN(CCCN)/[N+]([O-])=N\O`, for which the GI50 with HL-60 is > 100 µM (inactive); with SW-620, > 100 µM (inactive); in the test with UACC-257, > 100 µM (inactive); with HCT-15, greater than 100 µM; in the test on CCRF-CEM, > 100 µM (inactive); with OVCAR-3 it was > 100 µM (inactive). Also, the GI50 in the test with HOP-18, in the test on OVCAR-8, in the test with NCI-H522, with SN12C, with 786-0 and in the test with NCI-H460 was > 100 µM (inactive) in each case. Further, the GI50 was > 100 µM (inactive) with SK-MEL-2; > 100 µM (inactive) with HCC 2998; > 100 µM (inactive) with SNB-19; > 100 µM (inactive) in the test on SK-OV-3; 0.195 µM (active) in the test on UACC-62.

Consider `C[S+](C)CCOC(=O)C(=[N+]=[N-])c1ccc([N+](=O)[O-])cc1`, for which the GI50 in the test with HL-60 is > 100 µM (inactive); in the test with SW-620, > 100 µM (inactive); with UACC-257 it was > 100 µM (inactive); in the test with HCT-15, greater than 100 µM; with CCRF-CEM, > 100 µM (inactive); in the test with OVCAR-3, > 100 µM (inactive). The GI50 in the test with HOP-18, in the test with OVCAR-8, in the test with NCI-H522, in the test with SN12C, in the test on 786-0 and in the test with TK-10 was > 100 µM (inactive) in each case. The GI50 with NCI-H460, with SK-MEL-2, in the test on HCC 2998, in the test with SNB-19, in the test with SK-OV-3 and with UACC-62 was > 100 µM (inactive) in each case.

For the compound `COC1(OC)C(N(C)C)=C(Cl)C(=O)/C1=C/C=O`, the GI50 with HL-60 was 77.4 µM (inactive); in the test on SW-620, 97.1 µM (inactive); in the test on UACC-257, 83.8 µM (inactive); in the test on HCT-15 it was 98.9 µM; in the test on CCRF-CEM, 20.9 µM (inactive); in the test on OVCAR-3, 60.1 µM (inactive). Further, the GI50 in the test on HOP-18, with OVCAR-8, with SN12C, in the test on 786-0, in the test with TK-10 and in the test with NCI-H460 was > 100 µM (inactive) in each case. Also, the GI50 with HCC 2998 was > 100 µM (inactive); with SNB-19 it was > 100 µM (inactive); with SK-OV-3 it was > 100 µM (inactive); in the test on UACC-62, 40 µM (inactive).

For `CC(C)(C)c1cc(C(P(=O)(O)O)P(=O)(O)O)cc(C(C)(C)C)c1O`, the GI50 in the test on HL-60 is > 100 µM (inactive); with SW-620, > 100 µM (inactive); in the test on UACC-257, > 100 µM (inactive); in the test on HCT-15, greater than 100 µM; with CCRF-CEM, > 100 µM (inactive); with OVCAR-3, > 100 µM (inactive). Also, the GI50 in the test with HOP-18, with OVCAR-8, in the test with NCI-H522, in the test with 786-0, in the test on TK-10 and in the test on NCI-H460 was > 100 µM (inactive) throughout. Moreover, the GI50 in the test with SK-MEL-2, in the test on HCC 2998, in the test with SNB-19, in the test on SK-OV-3 and with UACC-62 was > 100 µM (inactive) throughout.

With `Nc1ccn(C2(CO)C=C(CO)C(O)C2O)c(=O)n1` (centres undefined), the GI50 is > 25.8 µM (inactive) with HL-60; > 25.8 µM (inactive) in the test with SW-620; > 25.8 µM (inactive) in the test on UACC-257; greater than 25.8 µM in the test on HCT-15; > 25.8 µM (inactive) with OVCAR-3; > 25.8 µM (inactive) with HOP-18. The GI50 in the test with OVCAR-8, in the test with NCI-H522, with SN12C, with 786-0, with TK-10 and in the test on NCI-H460 was > 25.8 µM (inactive) each time. The GI50 with SK-MEL-2, in the test with HCC 2998, with SNB-19, in the test on SK-OV-3 and in the test with UACC-62 was > 25.8 µM (inactive) in each case.

With `C[C@]12CC[C@H](O)C[C@H]1CC[C@@H]1[C@@H]2CC[C@]2(C)[C@@H](C3=CC(=O)OC3)CC[C@]12O` [DIGITOXIGENIN], the GI50 in the test on HL-60 is 0.0524 µM (active); in the test with SW-620 it was 0.118 µM (active); in the test with UACC-257 it was 0.303 µM (active); in the test with HCT-15, 0.101 µM; in the test on CCRF-CEM, 0.0297 µM (active); in the test with OVCAR-3, 0.0367 µM (active). The GI50 in the test with OVCAR-8 was 0.147 µM (active); in the test on NCI-H522 it was < 0.01 µM (active); with SN12C it was 0.0349 µM (active); in the test on T47D, 0.292 µM (active); in the test with 786-0, 0.0447 µM (active); in the test on TK-10 it was 0.0944 µM (active). The GI50 in the test on NCI-H460 is 0.0168 µM (active); in the test on SK-MEL-2 it was 0.321 µM (active); in the test with HCC 2998 it was 0.235 µM (active); in the test on SNB-19, 0.851 µM (active); in the test on MDA-N, 0.168 µM (active); with SK-OV-3, 0.111 µM (active). The GI50 in the test with UACC-62 was 0.36 µM (active).
